The text below walks through data of PMC12195615, “In Vitro and In Silico Assessments of Curcuminoids and Turmerones from Curcuma longa as Novel Inhibitors of Leishmania infantum Arginase” (Pharmaceuticals, 2025).

Converted amounts (≈) assume the structure as drawn. Where two headings read alike, the source gives them in different places. Marks after values point to notes of the source that are not given here.

The test system of series [1] is sheep red blood cells (RBC). Particulars: for hemolytic activity (CH50) RBC: sheep RBC, 1 h at 37 °C, mean ± SE.
Protocol: Blood samples were washed four times with cold PBS to remove plasma, and a 4% (v/v) RBC suspension was prepared in the same buffer. […] After a 1 h incubation at 37 °C, the reaction was stopped by adding 200 µL of PBS. A positive hemolysis control was performed by adding 200 µL of distilled water to untreated cells. The microplates were then centrifuged (2000 rpm/5 min), and 200 µL of the supernatants were transferred to new 96-well microplates for spectrophotometric analysis at 540 nm (SpectraMax M2, Molecular Devices, CA, USA). The percentage of hemolysis for each treatment was calculated relative to the hemolysis control (100%), and the 50% hemolytic concentration (HC50) was determined through regression analysis of the dose–response curves.
Series [2] has as its system Leishmania infantum promastigotes. Description: Anti-promastigote activity (resazurin), L. infantum. It is filed as cell-based. Particulars: for L. infantum IC50 ± SE: promastigotes, resazurin; for IC50: Leishmania infantum. The procedure:
(§1) Promastigote forms of Leishmania infantum (MHOM/BR/1974/PP75) and Leishmania amazonensis (IFLA/BR/1967/PH8) were cultured in complete Schneider’s Insect Medium (SIM, 10% FBS). […] Drug-free parasite cultures served as a positive control of viability. […] After 24 h of promastigote incubation, 100 μM resazurin was added, and the cells were cultured for an additional 24 h. At 48 h of the treatment, parasites were assessed fluorometrically (555 nm excitation and 585 nm emission) for viability using a microplate reader Spectra Max M2 (Molecular Devices, CA, USA). Dose–response curves were then generated, and the half-maximal inhibitory concentrations (IC50) for each treatment were determined through regression analysis.
(Alamar Blue is a resazurin reagent that responds to reducing activity.)

Series [3] has as its system intracellular L. infantum amastigotes. As to the kind of experiment: Inhibition of intracellular amastigotes in infected RAW 264.7 macrophages. Format: cell-based, Leishmania infantum. Particulars: for number of amastigotes per 100 infected macrophages: 20 μg/mL, 48 h, vs untreated control, p < 0.05; for IC50: Leishmania infantum. The procedure: (§2) After adhesion, the cells were incubated for 24 h in the presence of L. infantum promastigotes at a ratio of 10 parasites per macrophage at 35 °C in a 5% CO2 atmosphere. After the interaction period, the wells were washed with PBS to remove non-internalized promastigotes, and the infected macrophages were incubated for 24 h under the same conditions. […] Untreated infected macrophages served as a positive control for amastigote viability. After 48 h of treatment, the supernatant was collected, and the coverslips were stained with Panoptic. […] The IC50 was then calculated using dose–response curve regression analysis.

The test system of series [4] is Leishmania amazonensis promastigotes. Description: Anti-promastigote activity (resazurin), L. amazonensis. It is filed as cell-based. Particulars: 48 h. The procedure:
as §1

In series [5] the test system is NO production by RAW 264.7 macrophages infected with L. infantum. As to the kind of experiment: NO production (Griess reaction) by L. infantum-infected macrophages. It is filed as cell-based, murine. Particulars: 48 h treatment, compared to untreated control. The procedure: as §2
The supernatant from L. infantum-infected macrophages, treated as described in Section 3.11, was collected to assess NO production using the Griess reaction. In short, 100 µL of the collected supernatants were transferred to 96-well microplates, followed by the addition of an equal volume of Griess reagent (0.5% sulfanilamide and 0.05% naphthylenediamine dihydrochloride in 5% phosphoric acid) to each well. The plates were then incubated at room temperature in the dark for 20 min. After incubation, the absorbance was measured at 570 nm.
On the technique in general: Griess reagent forms a coloured azo dye with nitrite.

The test system of series [6] is VERO (normal African green monkey kidney epithelial cells). As to the kind of experiment: Cytotoxicity assay (MTT), VERO. Format: cell-based. Particulars: 48 h treatment, mean ± SE.
Protocol: (§3) RAW 264.7 (murine macrophages) and VERO (normal African green monkey kidney epithelial cells) lines were obtained from Banco de Células do Rio de Janeiro (BCRJ, RJ, Brazil) under the codes 0212 and 0245, respectively. Both were cultured in complete DMEM medium (10% FBS, 100 U/mL penicillin, 100 µg/mL streptomycin, and 3 µg/mL Fungizone®) at 37 °C and 5% CO2 atmosphere. After reaching subconfluence, the cells were washed twice with cold phosphate saline buffer (PBS, pH 7.2), detached by trypsinization, and seeded into 96-well microplates (10^5 cells/100 μL). […] The cells were further incubated under the same conditions for another 48 h. Drug-free cells cultured in DMEM served as positive controls of viability. The concentration of the solvent (DMSO) was normalized in all wells (1%) of treatment and control. Cell viability was assessed using a colorimetric assay based on the reduction of tetrazolium salt [69].
Series [7] deals with RAW 264.7 (murine macrophages). As to the kind of experiment: Cytotoxicity assay (MTT), RAW 264.7. Particulars: 48 h treatment, MTT; mean ± SE.
Protocol: as §3
The target in series [8] is recombinant arginase from L. infantum (LiARG) (Leishmania infantum, UniProt A4IB49). Description: LiARG inhibition assay (urea quantification). Format: biochemical. The procedure: The expression and purification of recombinant arginase from L. infantum (LiARG) were previously detailed by our group. LiARG inhibition was performed by incubating different concentrations (4.7 to 100 μg/mL) of the samples in the enzymatic reaction solution: 50 mM CHES buffer (pH 9.5) and 50 mM L-arginine. The enzymatic reaction was initiated by adding LiARG (10 μg/mL) and allowed to proceed for 5 min at 37 °C before being stopped on ice. Subsequently, enzymatic activity was assessed by measuring the conversion of L-arginine to urea using a commercial kit (Labtest UREA CE kit®, Lagoa Santa, MG, Brazil). The amount of urea produced in each reaction was determined spectrophotometrically at 600 nm, following its hydrolysis into ammonia and conversion into indophenol blue. […] From that, the IC50 was determined by regression analysis.

The next series relates to human arginase I. Also on record: method as in PMID 37462864. Particulars: cited from earlier work.
The subject of the next series is mouse arginase. Particulars: colorectal cancer model; cited from earlier work.
Series [9] has as its system promastigotes and axenic amastigotes of L. donovani. Particulars: 15 µM; cited from earlier work.
In another series the test system is intracellular amastigote. Particulars: 20 µM, within 24 h of treatment; cited from earlier work.
Series [10] relates to L. donovani promastigotes. Particulars: read-out: IC50 against L. donovani promastigotes; cited from earlier work.
The next series has as its system L. braziliensis. Particulars: topical 1.5 mg/day, hamsters infected with L. braziliensis; cited from earlier work.
The subject of series [11] is L. major promastigotes. Also on record: method as in PMID 10865470. Particulars: cited from earlier work.
The nature of series [12]: Cytotoxicity assay (MTT), RAW 264.7. Particulars: mouse, RAW 264.7 macrophage cells.
Protocol: as §3
Series [13] concerns L. major promastigotes. Particulars: 15 µM; cited from earlier work.
In a further series the test system is J774.A.1 macrophages. Also on record: method as in PMID 35325685. Particulars: cited from earlier work.
Another series deals with Pgp. Particulars: affected the uptake of rhodamine-123 and digoxin; cited from earlier work.

With `O.O.O.O=C([O-])C(O)C(O)C(=O)[O-].O=C([O-])C(O)C(O)C(=O)[O-].[K+].[K+].[Sb].[Sb]` (stereo not drawn) [PAT, potassium antimony(III) tartrate hydrate, reference compound], the hemolytic potential entry in [1] (at the highest concentration tested (100 μg/mL)) was “did not show hemolytic potential”. In addition, the “hemolytic activity (CH50) RBC” value in series [1] was more than 100 µg/mL. Further, the “L. infantum IC50 ± SE” value in series [2] (48 h) is less than 6.25 µg/mL. Also, the “number of amastigotes per 100 infected macrophages” value in [3] is given as “significantly reduced”. In addition, the “IC50 against intracellular L. infantum amastigotes” value in series [3] (infected RAW 264.7, 48 h treatment) was 18.9 ± 4.06 µg/mL. Further, the “L. amazonensis IC50 ± SE” value in series [4] (promastigotes, resazurin) is recorded as 11.9 ± 3.1 ^c,d µg/mL. Moreover, in [5], the NO levels result is “increased NO levels at 10 and 20 µg/mL”. In addition, the “Cytotoxicity (CC50) VERO” value in series [6] is reported as 23.9 ± 1.5 ^b μg/mL. For the same compound, the “Cytotoxicity (CC50) RAW 264.7” value in series [7] was 30.8 ± 0.73 ^b μg/mL.
For the compound `O=c1c(O)c(-c2ccc(O)c(O)c2)oc2cc(O)cc(O)c12` [Quercetin (7), Quercetin, reference compound], the IC50 in series [8] is less than 20.7 µM.
In the case of `CC(C)C1=C[C@H]2[C@@H](CC[C@]2(C)O)[C@](C)(O)CC1` [alismoxide], in the series on human arginase I, the “inhibitory activity against human arginase I” value is “showed inhibitory activity”.
For `COc1cc(/C=C/C(=O)CC(=O)/C=C/c2ccc(O)c(OC)c2)ccc1O` [compound 1, curcumin], in [1], the “hemolytic activity (CH50) RBC” value was more than 200 µg/mL. Further, the IC50 is 15 µg/mL in [2] (48 h, read-out: L. infantum IC50 ± SE, promastigotes, 48 h, resazurin); approximately 42 µM in series [2] (read-out: IC50 against L. infantum promastigotes (molar), converted from 15.5 µg/mL); 13.6 µg/mL in [3] (RAW264.7, 48 h, read-out: IC50 against intracellular L. infantum amastigotes); approximately 36.9 µM in [3] (RAW264.7, converted from 13.6 µg/mL, read-out: IC50 against L. infantum intracellular amastigotes); 5.5 ± 0.45 µg/mL (≈ 14.9 µM) in series [4] (Leishmania amazonensis, read-out: L. amazonensis IC50 ± SE); 47.6 µM in series [8]. The IC50 in series [10] was 25 µM. For the same compound, the “L. infantum IC50 ± SE” value in [2] (48 h, listed as Curcumin (1)) was 15.5 ± 1.7 ^c µg/mL. The “number of amastigotes per 100 infected macrophages” value in [3] is given as “significantly reduced”. In addition, the “reduction of mouse arginase activity” value with mouse arginase is recorded as 73%. Moreover, the “growth of promastigotes and axenic amastigotes of L. donovani” value in [9] is “did not inhibit the growth”. In the series on intracellular amastigote, the “reduction of intracellular amastigote load” value is listed as 85%. In series [5], the NO levels entry is “reduced NO levels at concentrations starting from 5 µg/mL”. Besides, the therapeutic response with L. braziliensis is recorded as 83%. The “IC50 against L. major promastigotes” value in the series with L. major promastigotes [11] is 7.8 ± 3.3 µg/mL (≈ 21.2 µM). For the same compound, the CC50 (in general, the concentration giving 50% cytotoxicity) at 48 h in series [12] was 69.8 ± 2.8 µg/mL (≈ 189 µM). The “growth of L. major promastigotes” value in the series with L. major promastigotes [13] is reported as “did not inhibit the growth”.
With `COc1cc(/C=C/C(O)=C/C(=O)/C=C/c2ccc(O)cc2)ccc1O` [compound 2, demethoxycurcumin], the “IC50 against L. major promastigotes” value with L. major promastigotes [11] is 14.1 ± 4.8 µg/mL (≈ 41.7 µM).
For the compound `O=C(/C=C/c1ccc(O)cc1)CC(=O)/C=C/c1ccc(O)cc1` [compound 3, bisdemethoxycurcumin], the “IC50 against L. major promastigotes” value in the series on L. major promastigotes [11] is on record as 21.5 ± 6.9 µg/mL (≈ 69.7 µM).
Turning to `CC(C)=CC(=O)C[C@H](C)c1ccc(C)cc1` [compound 4, ar-turmerone], the “CC50 J774.A.1 macrophages” value in the series on J774.A.1 macrophages is 720.06 µg/mL (≈ 3330 µM).
As for `CC(C)=CC(=O)C[C@H](C)C1C=CC(C)=CC1` (stereo partly drawn) [compound 5, α-turmerone], the Pgp inhibition entry in the series with Pgp is “Pgp inhibitor”.
